Measurements reported in patent US20260176279A1, “DUAL RAF AND TUBULIN INHIBITORS AND METHODS OF USE THEREOF” (Deciphera Pharmaceuticals, LLC, priority 2023, published 2026).
Read-outs that look alike come from different tables or passages of the source.

Assays:
B-Raf kinase = molecular target: T1, B-Raf kinase (Homo sapiens, UniProt P15056); test: Biochemical Assay for B-Raf (coupled pyruvate kinase/lactate dehydrogenase assay)
T1 construct: GST (N); purchased Sigma

C-Raf kinase = molecular target: T2, C-Raf kinase (Homo sapiens, UniProt P04049, Y340D/Y341D); test: Biochemical Assay for C-Raf (coupled pyruvate kinase/lactate dehydrogenase assay)
T2 construct: C-Raf residues 306-end; Y340D, Y341D with N-; GST (N); purchased Eurofins
T2 sequence (P04049 307-648 Y340D/Y341D): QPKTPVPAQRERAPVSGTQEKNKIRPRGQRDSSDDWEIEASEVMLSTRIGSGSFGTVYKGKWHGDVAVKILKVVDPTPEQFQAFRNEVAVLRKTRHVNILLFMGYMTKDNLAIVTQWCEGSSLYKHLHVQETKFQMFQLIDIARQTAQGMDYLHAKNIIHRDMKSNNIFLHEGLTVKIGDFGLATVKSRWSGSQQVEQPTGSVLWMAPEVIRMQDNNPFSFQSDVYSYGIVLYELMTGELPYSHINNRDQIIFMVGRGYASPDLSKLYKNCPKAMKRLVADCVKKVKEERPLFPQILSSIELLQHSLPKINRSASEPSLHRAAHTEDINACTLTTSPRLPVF

MiaPaca-2 cells = test: MiaPaca-2 Cell Proliferation Assay; assay type: cell-based; conditions: Homo sapiens, MIA PaCa-2
Experimental: MiaPaca-2 cells (catalog #CRL-1420) are obtained from the American Type Culture Collect (ATTC, Manassas, VA). Briefly, cells were grown in DMEM supplemented with 10% characterized fetal bovine serum (Invitrogen, Carlsbad, CA), 2.5% New Zealand sourced horse serum and 1% Penicillin/Streptomycin/L-Glutamine at 37° C., 5% CO2, and 95% humidity. Cells are expanded until reaching 70-95% confluency at which point they are sub-cultured or harvested for assay use. For assays completed in 96-well plates, a serial dilution of test compound is dispensed into a 96-well black clear bottom plate in triplicate. Three thousand cells are added per well in 200 μL complete growth medium in the 96-well plate. Plates are incubated for 67 to 72 h at 37° C., 5% CO2, and 95% humidity. At the end of the incubation, 40 μL of a […] solution of resazurin (Sigma, St. Louis, MO) in PBS is added to each well of the plate and plates are incubated for an additional 5 to 6 hours at 37° C., 5% CO2, and 95% humidity. For 384-well assays, a threefold, 8-point serial dilution of compound was spotted column wise into a 384 well black, clear bottom, tissue culture treated plate using the Beckman Coulter Echo 650. Likewise, a threefold, 8-point serial dilution of cobimetinib was spotted row wise into the 384 well black, clear bottom plate containing compound. DMSO concentration was constant across all wells at 0.4%. Seven hundred fifty cells are added per well in 50 μL complete growth medium in each 384-well plate. Plates are incubated for 67 to 72 h at 37° C., 5% CO2, and 95% humidity. At the end of the incubation, 10 μL of a 440 μM solution of resazurin (Sigma, St. Louis, MO) in PBS is added to each well of the plate and plates are incubated for an additional 4 to 6 h at 37° C., 5% CO2, and 95% humidity. Plates are read on a Synergy2 or equivalent reader (Biotek, Winooski VT) using an excitation of 540 nm and an emission of 600 nm. Data is analyzed using Prism software (Graphpad, San Diego, CA) to calculate IC50 values.

HCT-116 cells = test: HCT-116 Cell Proliferation Assay; assay type: cell-based; conditions: Homo sapiens
Experimental: HCT-116 cells (catalog #CCL-247) are obtained from the American Type Culture Collect (ATCC, Manassas, VA). Briefly, cells are grown in McCoy's 5A supplemented with 10% characterized fetal bovine serum (Invitrogen, Carlsbad, CA) and 1% Penicillin/Streptomycin/L-Glutamine at 37° C., 5% CO2, and 95% humidity. Cells are expanded until reaching 70-95% confluency at which point they are sub-cultured or harvested for assay use. A serial dilution of test compound is dispensed into a 384-well black clear bottom plate in triplicate. 375 cells are added per well in 50 μL complete growth medium in the 384-well plate. Plates are incubated for 67 to 72 h at 37° C., 5% CO2, and 95% humidity. At the end of the incubation, 40 μL of a […] solution of resazurin (Sigma, St. Louis, MO) in PBS is added to each well of the plate and plates are incubated for an additional 4 to 5 hours at 37° C., 5% CO2, and 95% humidity. Plates are read on a Synergy2 or equivalent reader (Biotek, Winooski, VT) using an excitation of 540 nm and an emission of 600 nm. Data is analyzed using Prism software (Graphpad, San Diego, CA) to calculate IC50 values.

HPAF-II cells = test: HPAF-II Cell Proliferation Assay; assay type: cell-based; conditions: Homo sapiens
Experimental: HPAF-II cells (catalog #CRL-1997) are obtained from the American Type Culture Collect (ATCC, Manassas, VA). Briefly, cells are grown in Minimum Essential Media supplemented with 10% characterized fetal bovine serum (Invitrogen, Carlsbad, CA) and 1% Penicillin/Streptomycin/L-Glutamine at 37° C., 5% CO2, and 95% humidity. Cells are expanded until reaching 70-95% confluency at which point they are sub-cultured or harvested for assay use. A serial dilution of test compound is dispensed into a 384-well black clear bottom plate in triplicate. 750 cells are added per well in 50 μL complete growth medium in the 384-well plate. Plates are incubated for 115 to 120 h at 37° C., 5% CO2, and 95% humidity. At the end of the incubation, 40 μL of a […] solution of resazurin (Sigma, St. Louis, MO) in PBS is added to each well of the plate and plates are incubated for an additional 18 to 24 h at 37° C., 5% CO2, and 95% humidity. Plates are read on a Synergy2 or equivalent reader (Biotek, Winooski, VT) using an excitation of 540 nm and an emission of 600 nm. Data is analyzed using Prism software (Graphpad, San Diego, CA) to calculate IC50 values.

Pa16c cells = test: Pa16c Cell Proliferation Assay; assay type: cell-based; conditions: Table 2, inhibition of cell proliferation
Experimental: Pa16c cells are obtained from Dr. Channing Der, University of North Carolina at Chapel Hill. Briefly, cells are grown in Dulbecco's Modified Eagle Medium supplemented with 10% characterized fetal bovine serum (Invitrogen, Carlsbad, CA) and 1% Penicillin/Streptomycin/L-Glutamine at 37° C., 5% CO2, and 95% humidity. Cells are expanded until reaching 70-95% confluency at which point they are sub-cultured or harvested for assay use. A serial dilution of test compound is dispensed into a 384-well black clear bottom plate in triplicate. 750 cells are added per well in 50 μL complete growth medium in the 384-well plate. Plates are incubated for 67 to 72 hours at 37° C., 5% CO2, and 95% humidity. At the end of the incubation, 40 μL of a […] solution of resazurin (Sigma, St. Louis, MO) in PBS is added to each well of the plate and plates are incubated for an additional 18 to 24 hours at 37° C., 5% CO2, and 95% humidity. Plates are read on a Synergy2 or equivalent reader (Biotek, Winooski, VT) using an excitation of 540 nm and an emission of 600 nm. Data is analyzed using Prism software (Graphpad, San Diego, CA) to calculate IC50 values.

tubulin = test: Cellular Tubulin Polymerization Assay (HCT-116 cells); assay type: cell-based; conditions: Table 3, HCT-116 cells; read-out: Tubulin Cellular IC50
[1] = Table 1, inhibition of biochemical activity, read-out: BRAF
[2] = Table 1, inhibition of biochemical activity, read-out: CRAF
[3] = Table 2, inhibition of cell proliferation, read-out: MiaPaca-2
[4] = Table 3, read-out: MiaPaca-2 IC50
[5] = HCT-116, Table 3, read-out: HCT-116 IC50
[6] = Table 2, inhibition of cell proliferation, read-out: HCT-116
[7] = HPAF-II, Table 3, read-out: HPAF-II IC50
[8] = Table 2, inhibition of cell proliferation, read-out: HPAF-II

T1 sequence (P15056 416-766): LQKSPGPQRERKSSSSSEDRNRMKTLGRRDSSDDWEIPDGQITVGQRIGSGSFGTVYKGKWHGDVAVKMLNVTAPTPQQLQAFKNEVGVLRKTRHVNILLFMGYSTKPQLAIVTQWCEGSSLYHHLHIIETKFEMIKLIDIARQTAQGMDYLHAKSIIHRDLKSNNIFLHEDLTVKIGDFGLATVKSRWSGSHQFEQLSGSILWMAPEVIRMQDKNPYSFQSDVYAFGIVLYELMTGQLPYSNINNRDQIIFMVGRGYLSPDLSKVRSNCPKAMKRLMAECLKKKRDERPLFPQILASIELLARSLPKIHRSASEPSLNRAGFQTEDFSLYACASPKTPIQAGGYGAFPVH

Compound	IC50 (B-Raf kinase; [1])	IC50 (B-Raf kinase; Table 3, read-out: BRAF IC50)	IC50 (C-Raf kinase; [2])	IC50 (C-Raf kinase; Table 3, read-out: CRAF IC50)	IC50 (MiaPaca-2 cells; [3])	IC50 (MiaPaca-2 cells; [4])	IC50 (HCT-116 cells; [5])	IC50 (HCT-116 cells; [6])	IC50 (HPAF-II cells; [7])	IC50 (HPAF-II cells; [8])	IC50 (Pa16c cells)	IC50 (tubulin)
CC(=O)Nc1cc(-c2cc(-c3cc(NC(=O)Nc4ccc(C(F)(F)F)nc4)ccc3C)ccn2)ccn1 [Example 4]	< 100 nM	< 100 nM	< 100 nM	< 100 nM	< 100 nM	< 100 nM	< 100 nM	< 100 nM	100 to 500 nM	100 to 500 nM	< 100 nM	< 100 nM
CC(=O)Nc1cc(-c2cc(-c3cc(NC(=O)Nc4ccc(C(F)(F)F)nc4)ccc3C)cn(C)c2=O)ccn1 [Example 9]	< 100 nM	< 100 nM	< 100 nM	< 100 nM	< 100 nM	< 100 nM	< 100 nM	< 100 nM	500 to 1000 nM	500 to 1000 nM	100 to 500 nM	< 100 nM
CNc1cc(-c2cc(-c3cc(NC(=O)Nc4ccc(C(F)(F)F)nc4)ccc3C)cc(OCCO)n2)ccn1 [Example 17]	100 to 500 nM	100 to 500 nM	< 100 nM	100 to 500 nM	< 100 nM	< 100 nM	< 100 nM	< 100 nM	500 to 1000 nM	500 to 1000 nM	< 100 nM	–
Cc1ccc(NC(=O)Nc2cc(C(F)(F)F)cnn2)cc1-c1ccnc(-c2ccnc(NC(=O)C3CC3)c2)c1 [Example 22, N-(4-(2-methyl-5-(3-(5-(trifluoromethyl)pyridazin-3-yl)ureido)phenyl)-[2,4′-bipyridin]-2′-yl)cyclopropanecarboxamide]	< 100 nM	–	< 100 nM	–	500 to 1000 nM	–	–	500 to 1000 nM	–	1000 to 10000 nM	1000 to 10000 nM	–
Cc1ccc(NC(=O)Nc2ccc(C(F)(F)F)nc2)cc1-c1cc(N2CCOCC2)nc(N2CCC(O)CC2)n1 [Example 34]	100 to 500 nM	100 to 500 nM	< 100 nM	100 to 500 nM	< 100 nM	< 100 nM	< 100 nM	< 100 nM	100 to 500 nM	100 to 500 nM	500 to 1000 nM	< 100 nM
Cc1ccc(NC(=O)Nc2ccc(C(F)(F)F)nc2)cc1-c1cc(OC[C@H](C)O)nc(N2CCOCC2)c1 [Example 39]	100 to 500 nM	100 to 500 nM	< 100 nM	< 100 nM	< 100 nM	< 100 nM	< 100 nM	< 100 nM	< 100 nM	< 100 nM	100 to 500 nM	< 100 nM
Cc1ccc(NC(=O)Nc2ccc(C(F)(F)F)nc2)cc1-c1cc(OC[C@@H](C)O)nc(N2CCOCC2)c1 [Example 40]	< 100 nM	100 to 500 nM	< 100 nM	< 100 nM	< 100 nM	< 100 nM	< 100 nM	< 100 nM	< 100 nM	< 100 nM	100 to 500 nM	< 100 nM
